Earlier results as cited in paper PMC8217170, “Phase Ib dose-escalation study of the hypoxia-modifier Myo-inositol trispyrophosphate in patients with hepatopancreatobiliary tumors” (Nature Communications, 2021).

Legend:
hepatocellular carcinoma = system: hepatocellular carcinoma; design: method as in ref 10 (supplementary references); settings: syngeneic, orthotopic rat model of hepatocellular carcinoma; ref 10 (supplementary references); cited from earlier work
pancreatic carcinoma = system: pancreatic carcinoma; design: method as in ref 15 (supplementary references); settings: 100 mg/kg gemcitabine; ref 15 (supplementary references); cited from earlier work

SMILES	Rats alive after 100 days (hepatocellular carcinoma)	Survival (pancreatic carcinoma) [days]
COc1cccc2c1C(=O)c1c(O)c3c(c(O)c1C2=O)C[C@@](O)(C(=O)CO)C[C@@H]3O[C@H]1C[C@H](N)[C@H](O)[C@H](C)O1 [doxorubicin, reference compound]	one out of ten	
Nc1ccn([C@@H]2O[C@H](CO)[C@@H](O)C2(F)F)c(=O)n1 [gemcitabine, reference compound]		63
